From patent US8053457B2, “3-imidazolyl-indoles for the treatment of proliferative diseases” (Novartis AG, priority 2007, dated 2011)

Assays:
[1] = target: T1, Hdm2 protein (amino acids 2-185) (Homo sapiens, UniProt Q00987); experiment: Fluorescence polarisation assay, inhibition of p53-Hdm2 interaction; format: binding; details: Hdm2 3 nM, Cy5-labelled p53-derived peptide 1 nM
T1 construct: Hdm2 protein (amino acids 2-185)
Method: Fluorescence Polarisation Assay
The inhibition of p53-Hdm2 interaction is measured by fluorescence polarization. Fluorescence polarization measures the rotational movement of molecules in a homogeneous suspension. For this assay, Hdm2 protein (amino acids 2-185) is combined with a Cy5-labelled p53-derived peptide optimised for Hdm2 binding (J. Med. Chem. 2000, 43, 3205-3208). Upon excitation of the Cy5 fluorescent ligand with linearly polarized light, the peptide rotates faster and emits light which is perpendicularly polarized. If the peptide is bound by Hdm2, rotation will slow down and the perpendicular component will decrease. Disruption of the formation of the peptide-Hdm2 complex due to an inhibitor molecule binding to the p53 binding site of Hdm2 results in faster rotation of the peptide. The ratiometric polarization assay readout is calculated from the parallel and perpendicular components of the fluorescence light with respect to the polarization of the excitation light.
The test is performed by combining 7 μl compounds diluted in dimethyl sulfoxide (DMSO) (10% final concentration) with 31.5 μl […] (final concentration 3 nM) in reaction buffer (PBS, 0.1% CHAPS, 1 mM DTT (dithiothreitol)). The solution is allowed to preincubate for 5 minutes at room temperature, followed by addition of 31.5 μl peptide in reaction buffer (final concentration 1 nM), and a further 5 minutes of incubation. A final volume of 20 μl (in triplicate) is distributed into small volume black 384-well plates (Greiner Bio-One GmbH, Frickenhausen, Germany). For measurement of samples, an Analyst AD multimode microplate reader (Molecular Devices Corporation, Sunnyvale, Calif., USA) with the following settings is used: Dichroic mirror 650 nm, Excitation 630 nm, Emission 695 nm. Raw values are expressed as percent of DMSO control, where background (reaction buffer with peptide but no Hdm2) is subtracted first from raw values. IC50 values are calculated by curve fitting using XLfit. If not specified, reagents were purchased from Sigma Chemical Co.

[2] = target: T2, MDM4 protein (amino acids 2-185) (Homo sapiens, UniProt O15151); experiment: Time resolved fluorescence energy transfer (TR-FRET) assay, inhibition of p53-Hdm4 interaction; format: binding; details: MDM4-Bio 10 nM, Cy5-p53 peptide 20 nM
T2 construct: MDM4 protein (amino acids 2-185), tagged with a C-terminal Biotin moiety
T2 sequence (O15151 2-185): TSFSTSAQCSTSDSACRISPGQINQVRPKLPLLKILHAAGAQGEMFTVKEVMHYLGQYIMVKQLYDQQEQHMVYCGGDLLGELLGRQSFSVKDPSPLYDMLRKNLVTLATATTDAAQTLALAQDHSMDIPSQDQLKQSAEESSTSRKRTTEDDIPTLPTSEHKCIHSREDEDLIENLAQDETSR
Method: Time Resolved Fluorescence Energy Transfer (TR-FRET) Assay
The inhibition of p53-Hdm4 interaction is measured by time resolved fluorescence energy transfer (TR-FRET). Fluorescence energy transfer (or Foerster resonance energy transfer) describes an energy transfer between donor and acceptor fluorescent molecules. For this assay, MDM4 protein (amino acids 2-185), tagged with a C-terminal Biotin moiety, is used in combination with a Europium labeled streptavidin (Perkin Elmer, Inc., Waltham, Mass., USA) serving as the donor fluorophore. The p53 derived, Cy5 labeled peptide Cy5-TFSDLWKLL (p53 aa18-26) is the energy acceptor. Upon excitation of the donor molecule at 340 nm, binding interaction between MDM4 and the p53 peptide induces energy transfer and enhanced response at the acceptor emission wavelength at 665 nm. Disruption of the formation of the p53-MDM4 complex due to an inhibitor molecule binding to the p53 binding site of MDM4 results in increased donor emission at 615 nm. The ratiometric FRET assay readout is calculated from the raw data of the two distinct fluorescence signals measured in time resolved mode (countrate 665 nm/countrate 615 nm×1000).
The test is performed in white 1536w microtiterplates (Greiner Bio-One GmbH, Frickenhausen, Germany) in a total volume of 3.1 μl by combining 100 nl of compounds diluted in 90% DMSO/10% H2O (3.2% final DMSO concentration) with 2 μl Europium labeled streptavidin (final concentration 2.5 nM) in reaction buffer (PBS, 125 mM NaCl, 0.001% Novexin (consists of carbohydrate polymers (Novexin polymers), designed to increase the solubility and stability of proteins; Novexin Ltd., Cambridgeshire, United Kingdom), Gelatin 0.01%, 0.2% Pluronic (block copolymer fromethylenoxide and propyleneoxide, BASF, Ludwigshafen, Germany), 1 mM DTT), followed by the addition of 0.5 μl MDM4-Bio diluted in assay buffer (final concentration 10 nM). Allow the solution to pre-incubate for 15 minutes at room temperature, followed by addition of 0.5 μl Cy5-p53 peptide in assay buffer (final concentration 20 nM). Incubate at room temperature for 10 minutes prior to reading the plate. For measurement of samples, an Analyst GT multimode microplate reader (Molecular Devices) with the following settings is used: Dichroic mirror 380 nm, Excitation 330 nm, Emission Donor 615 nm and Emission Acceptor 665 nm. IC50 values are calculated by curve fitting using XLfit. If not specified, reagents are purchased from Sigma Chemical Co, St. Louis, Mo., USA.

T1 sequence (Q00987 2-185): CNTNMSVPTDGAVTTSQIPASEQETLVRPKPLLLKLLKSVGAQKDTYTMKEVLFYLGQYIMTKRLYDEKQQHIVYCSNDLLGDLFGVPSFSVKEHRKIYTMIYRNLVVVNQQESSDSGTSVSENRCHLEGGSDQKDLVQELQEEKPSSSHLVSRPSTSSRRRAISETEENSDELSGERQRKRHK

Row | Compound | IC50 [1] [µM] | IC50 [2] [µM]
1 | O=C(NCCN1CCN(Cc2ccccn2)C1=O)c1[nH]c2cc(Cl)ccc2c1-c1c(-c2ccccc2)ncn1Cc1ccc(Cl)cc1 [Example 328, 6-Chloro-3-[3-(4-chloro-benzyl)-5-phenyl-3H-imidazol-4-yl]-1H-indole-2-carboxylic acid [2-(2-oxo-3-pyridin-2-ylmethyl-imidazolidin-1-yl)-ethyl]-amide] | 0.19 | 63.7
2 | O=C(CN1CCN(CCNC(=O)c2[nH]c3cc(Cl)ccc3c2-c2c(-c3ccccc3)ncn2Cc2ccc(Cl)cc2)CC1)Nc1cccnc1 [Example 271] | 0.3 | 54.9
3 | OCc1cc(Cl)ccc1Cn1cnc(-c2ccccc2)c1-c1c[nH]c2cc(Cl)c(F)cc12 [Example 148] | 0.11 | 55.3
4 | Oc1cccc(-c2ncn(Cc3ccc(Cl)cc3)c2-c2c[nH]c3cc(Cl)c(F)cc23)c1 [Example 142, 3-[1-(4-Chloro-benzyl)-5-(6-chloro-5-fluoro-1H-indol-3-yl)-1H-imidazol-4-yl]-phenol] | 0.64 | 43.4
5 | Fc1cc2c(-c3c(-c4ccccc4)ncn3Cc3ccc4cc[nH]c4c3)c[nH]c2cc1Cl [Example 135] | 7.2 | 68.3
